A short description of data set [1]: Lipophilicity coefficient RM0 by reversed phase thin layer chromatography. The format is physicochemical. The settings on record: RP-18 TLC, methanol/phosphate buffer pH=7.4. The method, boiled down: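 RP-18 F254 TLC plates developed at room temperature in methanol/100 mM phosphate buffer pH 7.4, methanol 95–65% (v/v), spots seen under UV 254 nm, in duplicate. RM = log(1/Rf − 1) regressed linearly against methanol content to give RM0.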

The target in data set [2] is T1, tyrosinase from mushroom (Agaricus bisporus, UniProt C7FF04). Briefly: Inhibition of commercial mushroom tyrosinase, substrate L-DOPA. The format is biochemical. As to conditions: read-out: Tyrosinase inhibition with L-DOPA [%]. The method, boiled down: (§1)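 Compounds at final 500, 250 or 125 μM with tyrosinase (1 or 3 U/well) in 50 mM phosphate buffer pH 6.8; reaction started with L-tyrosine (monophenolase) or L-DOPA (diphenolase). After 25 min, absorbance at 475 nm; % inhibition versus DMSO control.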
T1 sequence (C7FF04 2-392): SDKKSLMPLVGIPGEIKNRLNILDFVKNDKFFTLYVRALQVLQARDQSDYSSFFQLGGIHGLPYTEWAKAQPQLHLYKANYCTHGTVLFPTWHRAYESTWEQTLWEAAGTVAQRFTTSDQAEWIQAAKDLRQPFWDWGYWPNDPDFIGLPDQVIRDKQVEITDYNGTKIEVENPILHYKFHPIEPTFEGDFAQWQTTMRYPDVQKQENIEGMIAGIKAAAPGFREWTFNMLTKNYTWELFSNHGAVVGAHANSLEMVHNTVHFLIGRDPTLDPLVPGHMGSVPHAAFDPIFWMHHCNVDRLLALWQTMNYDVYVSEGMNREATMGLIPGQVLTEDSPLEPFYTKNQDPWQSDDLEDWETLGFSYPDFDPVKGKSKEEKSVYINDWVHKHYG
T1 sequence (G1K3P4 entry or part of it, further chain): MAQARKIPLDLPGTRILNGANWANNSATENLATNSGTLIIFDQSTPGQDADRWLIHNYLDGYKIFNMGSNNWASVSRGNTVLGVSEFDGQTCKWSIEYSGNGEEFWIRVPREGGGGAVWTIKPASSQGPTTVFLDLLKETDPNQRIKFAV

In data set [3] the target is T1, tyrosinase from mushroom. Put plainly: Inhibition of commercial mushroom tyrosinase, substrate L-tyrosine. As to conditions: read-out: Tyrosinase inhibition with L-tyrosine [%]. The format is biochemical. In a few lines:
as §1

The test system of data set [4] is B16-F10 murine melanoma cell line. Put plainly: Cytotoxicity (MTT) in B16-F10 murine melanoma cells. The format is cell-based. The settings on record: 48 h. In a few lines:
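B16-F10 cells seeded 5000/well in F10-Ham with 1% FBS, grown 24 h, then exposed to compound at various concentrations for 48 h. MTT formazan dissolved in DMSO, absorbance at 570 nm; viability as % of DMSO control (AT/AC×100).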

The term inhibition denotes the relative decrease from the control value, in per cent. On to `O=C(/C=C/c1ccc(Cl)cc1)NCCCCCO` [Compound A-111, (2E)-3-(4-chlorophenyl)-N-(5-hydroxypentyl)prop-2-enamide], for which the RM0 in data set [1] worked out at 2.79. Moreover, the inhibition at 250 µM at tyrosinase from mushroom [2] amounted to 59.9 ± 1.56%. The inhibition at 500 µM on tyrosinase from mushroom [3] was found to be 89 ± 0.98%. For the same molecule, the “Cytotoxicity study in B16F10 cells, % viability” value (from here on “Cytotoxicity study … % viability”) was 88.2% in data set [4] (150 μM), 95.6% in data set [4] (200 μM) and 89.7% in data set [4] (250 μM).

In data set [1], `O=C(/C=C/c1ccccc1)NCCCCCO` [Compound A-133, (2E)-N-(5-hydroxypentyl)-3-phenylprop-2-enamide] came in with an RM0 of 2.15. For the same molecule, the inhibition at 500 µM at tyrosinase from mushroom [2] came out at 48 ± 1.83%; at tyrosinase from mushroom [3], 58.6 ± 4.58%. For the same molecule, the “Cytotoxicity study … % viability” value came out at 101.7% in data set [4] (150 μM), 94.9% in data set [4] (200 μM) and 95.6% in data set [4] (250 μM).

`O=C(/C=C/c1ccc(Cl)cc1)NCCCO` [H-330/21, (2E)-3-(4-chlorophenyl)-N-(3-hydroxypropyl)prop-2-enamide] registered an RM0 in data set [1] of 1.94. In addition, the inhibition at 500 µM came out at 55.3 ± 1.39% on tyrosinase from mushroom [2] (500 μM) and 82.49 ± 0.65% on tyrosinase from mushroom [3] (500 μM). Besides, the entries for the “Cytotoxicity study … % viability” value in data set [4] (150 μM), in data set [4] (200 μM) and in data set [4] (250 μM) were 78.6%, 82.9% and 83.9%, respectively.

Take `Cc1ccc(/C=C/C(=O)NCCCCCO)cc1` [H-415/21, (2E)-N-(5-hydroxypentyl)-3-(4-methylphenyl)prop-2-enamide]: the RM0 in data set [1] was determined as 2.49. The inhibition at 500 µM was 30.4 ± 0.88% on tyrosinase from mushroom [2] and 25 ± 5.67% on tyrosinase from mushroom [3]. Besides, the “Cytotoxicity study … % viability” value in data set [4] (150 μM) is on record as 85.2%; in data set [4] (200 μM) it was 90.3%; in data set [4] (250 μM), 75.7%.

Consider `O=C(/C=C/c1ccccc1)NCCCCCCO` [H-425/21, (E)-N-(6-hydroxyhexyl)cinnamic acid amide], for which, in data set [1], the RM0 amounted to 2.40. Also, the inhibition at 500 µM turned out to be 34.6 ± 2.46% on tyrosinase from mushroom [2] (500 μM) and 44.6 ± 5.99% at tyrosinase from mushroom [3] (500 μM). Further, the “Cytotoxicity study … % viability” value in data set [4] (150 μM) was 109.2%; in data set [4] (200 μM) it was 98.4%; in data set [4] (250 μM) it was 86.9%.

In data set [1], `O=C(/C=C/c1ccc(Cl)cc1)NCCO` [H-427/21, (2E)-3-(4-chlorophenyl)-N-(2-hydroxyethyl)prop-2-enamide] displayed an RM0 of 1.93. The results for the inhibition at 500 µM on tyrosinase from mushroom [2] (500 μM) and on tyrosinase from mushroom [3] (500 μM) were 55.8 ± 0.77% and 67.5 ± 2.66%, respectively. Also, the “Cytotoxicity study … % viability” value in data set [4] (150 μM) is 73.7%; in data set [4] (200 μM), 80.2%; in data set [4] (250 μM), 77.8%.

The record behind these values is patent US20250263376A1, “(E)-N-CINNAMOYLAMINOALKANOLS WITH MELANOGENESIS INHIBITORY ACTIVITY” (Uniwersytet Jagiellonski, priority 2024, published 2025).
